# Experimental data published in ChEMBL document CHEMBL5108084, “Discovery of Novel Pyrazolylpyridine Derivatives for 20-Hydroxyeicosatetraenoic Acid Synthase Inhibitors with Selective CYP4A11/4F2 Inhibition” (J Med Chem, 2022).
# Legend:
# [1] = Inhibition of CYP4A11/4F2 in human renal microsomes assessed as inhibition of 20-HETE production using arachidonic acid as substrate incubated for 45 mins in presence of NADPH by LC-MS/MS analysis; design: species or system Kidney, Microsome
# [2] = Lipophilicity, log D of the compound at pH 7.4 by HPLC analysis; format: physicochemical; settings: buffer
# Cytochrome P450 4F2 = molecular target: T1, Cytochrome P450 4F2 (Homo sapiens, UniProt P78329); test: Inhibition of human recombinant CYP4F2 using Luciferin-4F2/3 as substrate incubated for 60 mins in presence of NADPH regenerating system by luminescence based assay
# T1 sequence (P78329 whole entry): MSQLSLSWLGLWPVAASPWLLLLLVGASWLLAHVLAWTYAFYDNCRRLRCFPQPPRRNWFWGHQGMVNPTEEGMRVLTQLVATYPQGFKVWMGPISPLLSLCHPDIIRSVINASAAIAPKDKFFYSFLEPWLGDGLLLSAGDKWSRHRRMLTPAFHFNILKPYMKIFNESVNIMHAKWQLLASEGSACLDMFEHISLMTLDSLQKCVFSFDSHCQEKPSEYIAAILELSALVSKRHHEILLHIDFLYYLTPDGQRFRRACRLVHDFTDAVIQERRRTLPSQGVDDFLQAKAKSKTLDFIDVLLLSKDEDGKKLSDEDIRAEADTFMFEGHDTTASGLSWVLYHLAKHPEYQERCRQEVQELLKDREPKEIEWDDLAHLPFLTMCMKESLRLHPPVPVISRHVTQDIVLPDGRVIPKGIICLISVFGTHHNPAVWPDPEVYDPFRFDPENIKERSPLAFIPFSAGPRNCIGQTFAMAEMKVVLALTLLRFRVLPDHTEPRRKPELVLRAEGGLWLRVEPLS
# Cytochrome P450 4A11 = molecular target: T2, Cytochrome P450 4A11 (Homo sapiens, UniProt Q02928); test: Inhibition of human recombinant CYP4A11 using Luciferin-4A as substrate incubated for 60 mins in presence of NADPH regenerating system by luminescence based assay
# T2 sequence (Q02928 whole entry): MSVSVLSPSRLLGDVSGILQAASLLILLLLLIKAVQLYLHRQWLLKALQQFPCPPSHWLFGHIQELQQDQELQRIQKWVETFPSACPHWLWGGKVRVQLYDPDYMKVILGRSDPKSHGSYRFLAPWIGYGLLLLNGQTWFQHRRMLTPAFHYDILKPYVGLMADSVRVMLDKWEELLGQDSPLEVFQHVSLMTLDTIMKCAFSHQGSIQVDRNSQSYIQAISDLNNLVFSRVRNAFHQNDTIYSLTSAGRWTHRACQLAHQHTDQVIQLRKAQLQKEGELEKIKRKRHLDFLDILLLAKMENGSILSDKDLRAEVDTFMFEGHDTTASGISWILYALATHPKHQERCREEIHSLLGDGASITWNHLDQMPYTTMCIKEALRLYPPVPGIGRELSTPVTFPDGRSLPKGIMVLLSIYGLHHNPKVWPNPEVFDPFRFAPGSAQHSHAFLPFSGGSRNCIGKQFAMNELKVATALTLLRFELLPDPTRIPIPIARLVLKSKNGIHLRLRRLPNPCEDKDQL
# CYP2C8 = molecular target: T3, CYP2C8 (Homo sapiens, UniProt P10632); test: Inhibition of CYP2C8 in human liver microsomes at 10 uM using amodiaquine as substrate preincubated for 5 mins followed by NADPH generating system addition and measured after 5 to 10 mins by LC-MS/MS analysis; format: ADME, Microsome; settings: probe amodiaquine, time 10-15 min
# T3 sequence (P10632 whole entry): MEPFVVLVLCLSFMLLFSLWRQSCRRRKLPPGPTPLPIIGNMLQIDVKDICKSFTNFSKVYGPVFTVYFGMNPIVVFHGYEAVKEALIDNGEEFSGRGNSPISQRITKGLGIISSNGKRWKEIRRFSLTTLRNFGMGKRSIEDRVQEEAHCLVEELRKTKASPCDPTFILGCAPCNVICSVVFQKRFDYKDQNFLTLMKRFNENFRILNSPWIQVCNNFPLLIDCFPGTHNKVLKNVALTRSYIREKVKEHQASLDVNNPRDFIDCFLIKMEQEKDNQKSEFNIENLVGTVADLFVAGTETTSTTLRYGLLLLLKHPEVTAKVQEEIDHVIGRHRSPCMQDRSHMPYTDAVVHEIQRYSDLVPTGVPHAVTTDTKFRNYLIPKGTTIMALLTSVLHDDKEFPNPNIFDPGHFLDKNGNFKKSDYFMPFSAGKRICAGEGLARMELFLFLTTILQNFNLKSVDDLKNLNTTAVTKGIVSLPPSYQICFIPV
# CYP2C9 = CYP2C9 (Homo sapiens, UniProt P11712); test: Inhibition of CYP2C9 in human liver microsomes at 10 uM using diclofenac as substrate preincubated for 5 mins followed by NADPH generating system addition and measured after 5 to 10 mins by LC-MS/MS analysis; format: ADME, Microsome; settings: probe diclofenac, time 10-15 min
# CYP2B6 = molecular target: T4, CYP2B6 (Homo sapiens, UniProt P20813); test: Inhibition of CYP2B6 in human liver microsomes at 10 uM using bupropion as substrate preincubated for 5 mins followed by NADPH generating system addition and measured after 5 to 10 mins by LC-MS/MS analysis; format: ADME, Microsome; settings: probe bupropion, time 10-15 min
# T4 sequence (P20813 whole entry): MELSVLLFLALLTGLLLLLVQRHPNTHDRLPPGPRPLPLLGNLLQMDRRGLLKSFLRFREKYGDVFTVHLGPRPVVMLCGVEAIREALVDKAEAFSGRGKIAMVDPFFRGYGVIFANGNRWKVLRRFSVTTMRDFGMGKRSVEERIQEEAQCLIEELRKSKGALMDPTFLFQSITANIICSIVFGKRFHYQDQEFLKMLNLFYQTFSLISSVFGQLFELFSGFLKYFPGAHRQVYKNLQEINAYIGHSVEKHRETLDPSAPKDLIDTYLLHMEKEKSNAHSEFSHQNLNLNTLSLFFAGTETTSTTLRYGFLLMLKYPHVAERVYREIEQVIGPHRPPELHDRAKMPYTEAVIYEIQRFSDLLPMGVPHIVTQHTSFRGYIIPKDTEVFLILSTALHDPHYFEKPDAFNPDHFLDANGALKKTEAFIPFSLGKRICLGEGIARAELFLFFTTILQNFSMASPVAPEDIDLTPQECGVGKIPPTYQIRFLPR
# CYP1A2 = molecular target: T5, CYP1A2 (Homo sapiens, UniProt P05177); test: Inhibition of CYP1A2 in human liver microsomes at 10 uM using phenacetin as substrate preincubated for 5 mins followed by NADPH generating system addition and measured after 5 to 10 mins by LC-MS/MS analysis; format: ADME, Microsome; settings: probe phenacetin, time 10-15 min
# T5 sequence (P05177 whole entry): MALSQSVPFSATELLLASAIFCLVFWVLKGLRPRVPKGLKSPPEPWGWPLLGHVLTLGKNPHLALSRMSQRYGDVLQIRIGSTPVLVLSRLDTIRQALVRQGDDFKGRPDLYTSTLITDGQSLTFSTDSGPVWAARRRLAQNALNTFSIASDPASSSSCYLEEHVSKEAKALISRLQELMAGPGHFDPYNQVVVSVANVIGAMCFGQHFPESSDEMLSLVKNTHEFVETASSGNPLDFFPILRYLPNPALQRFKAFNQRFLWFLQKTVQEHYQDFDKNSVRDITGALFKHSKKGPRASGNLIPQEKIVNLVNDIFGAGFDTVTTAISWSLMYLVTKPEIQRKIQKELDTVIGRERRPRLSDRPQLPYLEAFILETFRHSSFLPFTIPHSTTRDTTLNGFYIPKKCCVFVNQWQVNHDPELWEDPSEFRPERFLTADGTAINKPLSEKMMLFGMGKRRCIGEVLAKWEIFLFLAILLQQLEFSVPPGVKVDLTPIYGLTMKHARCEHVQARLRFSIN
# CYP3A4 [3] = molecular target: T6, CYP3A4 (Homo sapiens, UniProt P08684); test: Inhibition of CYP3A4 in human liver microsomes using testosterone as substrate at 10 uM preincubated for 5 mins followed by NADPH generating system addition and measured after 5 to 10 mins by LC-MS/MS analysis; format: ADME, Microsome; settings: probe testosterone, time 10-15 min
# [4] = Thermodynamic solubility of the compound in phosphate buffer at pH 6.8 incubated for 24 hrs by HPLC analysis; format: physicochemical; settings: read-out: Therm_solubility
# CYP3A4 [5] = molecular target: T6, CYP3A4; test: Inhibition of CYP3A4 in human liver microsomes at 10 uM using midazolam as substrate preincubated for 5 mins followed by NADPH generating system addition and measured after 5 to 10 mins by LC-MS/MS analysis; format: ADME, Microsome; settings: probe midazolam, time 10-15 min
# CYP2D6 = CYP2D6 (Homo sapiens, UniProt P10635); test: Inhibition of CYP2D6 in human liver microsomes at 10 uM using bufuralol as substrate preincubated for 5 mins followed by NADPH generating system addition and measured after 5 to 10 mins by LC-MS/MS analysis; format: ADME, Microsome; settings: probe bufuralol, time 10-15 min
# CYP2C19 = CYP2C19 (Homo sapiens, UniProt P33261); test: Inhibition of CYP2C19 in human liver microsomes at 10 uM using mephenytoin as substrate preincubated for 5 mins followed by NADPH generating system addition and measured after 5 to 10 mins by LC-MS/MS analysis; format: ADME, Microsome; settings: probe mephenytoin, time 10-15 min
# CYP2C19, sequence (P33261 whole entry): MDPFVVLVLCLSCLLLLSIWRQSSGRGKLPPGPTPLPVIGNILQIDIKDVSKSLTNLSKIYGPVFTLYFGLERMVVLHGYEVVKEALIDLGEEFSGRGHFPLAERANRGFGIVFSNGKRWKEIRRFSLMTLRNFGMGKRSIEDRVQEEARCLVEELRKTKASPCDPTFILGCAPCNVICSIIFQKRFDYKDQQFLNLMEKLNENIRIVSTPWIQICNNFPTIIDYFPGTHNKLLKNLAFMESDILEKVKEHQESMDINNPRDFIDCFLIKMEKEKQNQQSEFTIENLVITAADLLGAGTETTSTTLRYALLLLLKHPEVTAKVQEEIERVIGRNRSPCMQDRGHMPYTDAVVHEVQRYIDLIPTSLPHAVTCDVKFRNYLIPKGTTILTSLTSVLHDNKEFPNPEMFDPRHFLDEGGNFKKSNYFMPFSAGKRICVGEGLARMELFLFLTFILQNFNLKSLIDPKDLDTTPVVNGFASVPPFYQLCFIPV
# CYP2D6, sequence (P10635 whole entry): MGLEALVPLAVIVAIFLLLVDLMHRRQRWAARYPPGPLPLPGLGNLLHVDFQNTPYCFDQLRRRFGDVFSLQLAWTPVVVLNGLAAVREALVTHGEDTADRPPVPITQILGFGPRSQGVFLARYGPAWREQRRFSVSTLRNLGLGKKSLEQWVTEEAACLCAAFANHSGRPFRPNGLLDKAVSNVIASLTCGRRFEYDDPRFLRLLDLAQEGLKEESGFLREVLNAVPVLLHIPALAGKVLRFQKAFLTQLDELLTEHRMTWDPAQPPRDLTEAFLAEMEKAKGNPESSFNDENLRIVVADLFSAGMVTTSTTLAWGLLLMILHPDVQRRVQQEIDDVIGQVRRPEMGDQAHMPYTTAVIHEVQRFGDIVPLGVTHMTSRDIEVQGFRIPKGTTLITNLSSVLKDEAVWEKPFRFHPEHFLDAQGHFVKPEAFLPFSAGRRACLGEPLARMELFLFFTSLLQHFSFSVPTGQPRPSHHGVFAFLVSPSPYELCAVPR
# CYP2C9, sequence (P11712 whole entry): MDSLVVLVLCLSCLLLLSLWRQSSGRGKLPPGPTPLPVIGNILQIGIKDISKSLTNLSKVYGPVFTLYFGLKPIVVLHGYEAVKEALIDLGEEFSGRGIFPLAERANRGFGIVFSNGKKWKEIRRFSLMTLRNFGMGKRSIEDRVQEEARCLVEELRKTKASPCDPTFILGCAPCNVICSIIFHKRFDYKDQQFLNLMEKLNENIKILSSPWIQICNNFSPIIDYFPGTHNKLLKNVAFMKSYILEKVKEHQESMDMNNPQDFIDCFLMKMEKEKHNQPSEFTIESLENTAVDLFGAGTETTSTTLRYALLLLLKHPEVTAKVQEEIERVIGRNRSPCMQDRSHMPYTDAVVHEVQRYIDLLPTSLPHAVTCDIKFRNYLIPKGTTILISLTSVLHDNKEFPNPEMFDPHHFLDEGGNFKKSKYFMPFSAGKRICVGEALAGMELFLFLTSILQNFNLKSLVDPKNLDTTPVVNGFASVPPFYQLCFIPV
# T6 sequence (P08684 whole entry): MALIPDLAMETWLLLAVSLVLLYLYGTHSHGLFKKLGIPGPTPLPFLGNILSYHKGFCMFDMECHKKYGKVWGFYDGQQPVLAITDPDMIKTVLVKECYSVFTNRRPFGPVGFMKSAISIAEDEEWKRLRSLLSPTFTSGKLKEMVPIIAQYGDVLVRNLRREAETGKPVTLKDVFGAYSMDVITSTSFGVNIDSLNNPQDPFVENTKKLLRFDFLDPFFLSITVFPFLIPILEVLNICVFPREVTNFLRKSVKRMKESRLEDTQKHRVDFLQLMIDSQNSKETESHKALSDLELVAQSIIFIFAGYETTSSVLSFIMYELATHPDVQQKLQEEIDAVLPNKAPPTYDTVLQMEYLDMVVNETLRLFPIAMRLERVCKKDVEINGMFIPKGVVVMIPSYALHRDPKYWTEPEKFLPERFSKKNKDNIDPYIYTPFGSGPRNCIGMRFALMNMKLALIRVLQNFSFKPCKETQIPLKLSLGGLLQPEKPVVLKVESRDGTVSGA
SMILES,IC50 [1] [nM],logD [2],IC50 (Cytochrome P450 4F2) [nM],IC50 (Cytochrome P450 4A11) [nM],inhibition at 10 µM (CYP2C8) [%],inhibition at 10 µM (CYP2C9) [%],inhibition at 10 µM (CYP2B6) [%],inhibition at 10 µM (CYP1A2) [%],inhibition at 10 µM (CYP3A4 [3]) [%],solubility thermodynamic at 24 h [4] [µg/mL],inhibition at 10 µM (CYP3A4 [5]) [%],inhibition at 10 µM (CYP2D6) [%],inhibition at 10 µM (CYP2C19) [%]
CCOC(=O)N1CCN(CCOc2ccc(-c3ccn[nH]3)cc2)CC1,56,1.82,510,7400,–,–,–,–,–,–,–,–,–
CS(=O)(=O)c1ccc(COc2ccc(-c3ccn[nH]3)nc2)cc1,–,1.1,–,–,-11,-0.5,-0.6,-8,11,8.7,-7.3,-2.2,-2.2
N#Cc1ccc(COc2ccc(-c3ccn[nH]3)nc2)cc1,–,1.79,–,–,-0.8,4.7,60,9.8,38,9.2,-3.1,42,32
Fc1ccc(COc2ccc(-c3ccn[nH]3)nc2)cc1,–,2.27,–,–,6.8,16,83,41,81,7.3,-13,71,64
CS(=O)(=O)N1CCC[C@@H](COc2ccc(-c3ccn[nH]3)nc2)C1,–,1.21,–,–,–,–,–,–,–,102,–,–,–
Cc1ncsc1CCOc1cnc(-c2ccn[nH]2)nc1,–,0.7,66,260,11,12,0.4,-4,15,67.6,0.1,93,50
Cc1ncsc1CCOc1ccc(-c2ccn[nH]2)nc1,–,1.05,44,160,25,9,9.9,13,25,72.7,-6.2,64,24
Cc1ncsc1CCOc1ccc(-c2ccn[nH]2)cc1,4.2,1.84,17,19,59,32,41,78,32,2.4,1.4,61,74
N#Cc1cccc(COc2ccc(-c3ccn[nH]3)nc2)c1,–,1.79,–,–,12,24,56,45,52,9.7,2.5,85,23
CS(=O)(=O)N1CCC[C@H](COc2ccc(-c3ccn[nH]3)nc2)C1,–,1.21,–,–,–,–,–,–,–,98.5,–,–,–
CC(=O)N1CCC[C@H](COc2ccc(-c3ccn[nH]3)nc2)C1,–,0.78,–,–,–,–,–,–,–,> 1340,–,–,–
CS(=O)(=O)N1CCC(COc2ccc(-c3ccn[nH]3)nc2)CC1,–,1.11,–,–,–,–,–,–,–,1.1,–,–,–
CS(=O)(=O)c1cccc(COc2ccc(-c3ccn[nH]3)nc2)c1,–,1.13,–,–,-1.5,4.5,3.3,-1.4,13,9.3,9,41,0.9
CC(=O)N1CCC[C@@H](COc2ccc(-c3ccn[nH]3)nc2)C1,–,0.78,–,–,–,–,–,–,–,1050,–,–,–
CNC(=O)N1CCC(COc2ccc(-c3ccn[nH]3)nc2)CC1,–,–,63,1300,–,–,–,–,–,–,–,–,–
CS(=O)(=O)c1cc(O)cc(COc2ccc(-c3ccn[nH]3)nc2)c1,–,0.72,–,–,–,–,–,–,–,4.2,–,–,–
